Measured values reported in patent US20260285847A1, “SYMMETRIC AMINOINDOLE-LINKED TRIAZINE FOR A DUAL EFFECT ON ALPHA-SYNUCLEIN AND TAU ISOFORM 2N4R FIBRILLIZATION” (Purdue Research Foundation, priority 2023, published 2026).
Entries after “also recorded” stand apart in the source; their conditions may differ.

Tests used:
tau isoform 2N4R [1] = target: T1, tau isoform 2N4R (Homo sapiens, UniProt P10636); assay: PICUP cross-linking assay of tau oligomer formation; assay type: biochemical; conditions: compound 50 μM; high molecular weight oligomers around 190 kDa
T1 construct: made in house; host or cells: E. coli BL21(DE3)
T1 sequence (P10636 1-441 isoform P10636-8): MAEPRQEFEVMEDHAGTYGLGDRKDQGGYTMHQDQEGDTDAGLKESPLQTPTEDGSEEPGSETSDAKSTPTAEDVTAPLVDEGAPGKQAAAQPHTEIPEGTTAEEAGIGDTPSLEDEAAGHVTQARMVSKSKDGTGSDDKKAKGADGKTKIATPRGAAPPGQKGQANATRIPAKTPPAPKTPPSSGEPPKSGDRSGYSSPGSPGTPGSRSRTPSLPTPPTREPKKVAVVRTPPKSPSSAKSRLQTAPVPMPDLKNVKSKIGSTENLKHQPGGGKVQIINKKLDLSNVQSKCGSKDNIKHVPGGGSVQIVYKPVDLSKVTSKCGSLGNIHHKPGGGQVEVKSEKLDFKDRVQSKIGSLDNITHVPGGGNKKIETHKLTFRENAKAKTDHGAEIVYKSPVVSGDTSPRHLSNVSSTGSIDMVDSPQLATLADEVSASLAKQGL
Procedure: (§1) Chemical and peptide source. DMSO and thioflavin-T (ThT) were purchased from Alfa Aesar (Ward Hill, MA). Procuration of recombinant α-syn was from rPeptide (WatKinsville, GA). The recombinant p-tau isoform 1N4R was prepared as published previously.^31, 36 Concerning the preparation of tau 2N4R, bacterial expression plasmid consisting of the vector pRK172 carrying a cDNA encoding the human Tau 2N4R isoform was a kind gift of Dr. David Eliezer (Weill Cornell Medicine). For protein expression, E. coli BL21(DE3) cells were transformed with the plasmid and grown in LB media supplemented with ampicillin (100 μg/mL). Protein over-expression was induced by the addition of 1 mM IPTG for 4 h at 37° C., and cells were pelleted by centrifugation at 6,000 g for 15 min at 4° C. The cells were resuspended in lysis buffer (20 mM MES, 400 mM NaCl, 0.2 mM MgCl2, 1 mM EGTA, protease inhibitor cocktail (P8340, Sigma Aldrich), 0.25 mg/mL lysozyme, and 1 μg/mL DNase I, pH 6.8) and lysed by a French press cell disruptor at 4° C., and the lysate was boiled for 20 min. Denatured proteins were pelleted by centrifugation at 30,000 g for 30 min at 4° C., and the supernatant was dialyzed overnight against cation exchange buffer (20 mM MES, 50 mM NaCl, 1 mM MgCl2, 1 mM EGTA, 2 mM DTT, 0.1 mM PMSF, pH 6.8). The dialysate was loaded onto a HiPrep SP HP column, and proteins were eluted with a linear gradient ranging from 50 mM to 1 M NaCl. Fractions containing tau isoform 2N4R were pooled, and the resulting protein solution was dialyzed against PBS (pH 7.4) and stored at −80° C.
PICUP is a technique in which oligomer formation is induced by cross-linking. To induce oligomerization by cross-linking, α-syn (from Rpeptide, LLC) and tau isoform 2N4R were diluted in 10 mM phosphate buffer (pH 7.4) to reach a final concentration of 10 μM. Different compounds were added to the protein solution at a final concentration of 50 μM, resulting in a molar ratio of 1:5. […]

alpha-synuclein (α-syn) = target: T2, alpha-synuclein (α-syn) (Homo sapiens, UniProt P37840); assay: Thioflavin T (ThT) fluorescence assay of α-syn fibril formation; assay type: biochemical; conditions: compound 100 μM
T2 construct: purchased rPeptide
Procedure: Thioflavin fluorescence assays. Thioflavin fluorescence assays were used to monitor fibril formation of recombinant α-syn, tau isoform 2N4R, treated with control DMSO and different compounds. Kinetics of α-syn fibrillization were performed using thioflavin T (ThT) as published previously.^32′ ^37 The fluorescence emission experiments were performed with the excitation and emission wavelengths set at 440 and 485 nm, respectively, with a Synergy HT multi-mode microplate reader (BioTek, Winooski, VT). Samples were measured in three replicates and the experiments were repeated three times using at least two different stock solutions. For each time point, arbitrary units of fluorescence were calculated from the mean values normalized against the maximum value in each completed assay. All results contained in FIG. 1 were presented as mean±SEM.
FIG. 1. Chemical structure, physicochemical descriptors, and the effect of compounds on alpha-synuclein (α-syn) aggregation measured as fluorescence intensity using ThT assay. TPSA, Log P, and Log D were obtained with SwissADME. BBB and pKa were obtained from the Blood-Brain Barrier Prediction Server (https://www.cbligand.org/BBB/) and Chemaxon, respectively. CNS MPO scores were assessed as published previously, The ThT (%) represent the maximum fluorescence intensity obtained at the plateau phase of the kinetics of fibrillization using 6.25 μM of α-syn. Compounds were tested at 100 μM (molar ratio 1:16). BBB, blood-brain barrier; C log D, calculated distribution coefficient at 7.4; C log P, calculated partition coefficient; CNS MPO, Central Nervous System Multi Parameter Optimization; HBA, Hydrogen Bond Acceptor; HBD, Hydrogen Bond Donor; LR5, Lipinski's rule of five; pKa, negative log of acid dissociation constant; ThT, Thioflavin T; TPSA, Topological polar surface area.

tau isoform 2N4R [2] = target: T1, tau isoform 2N4R; assay: ThT fluorescence assay of tau isoform 2N4R fibril formation; assay type: biochemical; conditions: compound 100 μM, tau 2N4R 6 μM, heparin 1.5 μM
Procedure: as §1

α-syn [3] = target: T3, α-syn (Homo sapiens, UniProt P37840); assay: PICUP cross-linking assay of α-syn oligomer formation; assay type: biochemical; conditions: compound 50 μM; high molecular weight oligomers around 50 kDa
T3 construct: purchased rPeptide
Procedure: PICUP is a technique in which oligomer formation is induced by cross-linking. To induce oligomerization by cross-linking, α-syn (from Rpeptide, LLC) and tau isoform 2N4R were diluted in 10 mM phosphate buffer (pH 7.4) to reach a final concentration of 10 μM. Different compounds were added to the protein solution at a final concentration of 50 μM, resulting in a molar ratio of 1:5. To confirm the gradual effect of compounds on the inhibition of α-syn oligomerization, compounds were tested at final concentration of 3.125, 6.25, 12.5, 25, and 50 μM. The controls consisted of samples without light exposition, without Ru(bpy) or ammonium persulfate, and without compound (i.e., 0.125% DMSO). The cross-linking reaction was initiated by the addition of 2 μL of Ru(bpy) (300 μM final concentration) and 2 μL ammonium persulfate (6 mM final concentration).^32 Samples were irradiated immediately. Light exposure was of a 1 second duration for α-syn and a 3 second duration for tau isoform 2N4R, with a 53 W (120 V) incandescent lamp installed in a homemade dark-box. Each tube contained a final volume of 20 μL. After irradiation, 8.3 μL of Laemmli loading buffer containing 15% 0-mercaptoethanol was immediately added to the solution, followed by incubation at 95° C. for 10 min. The cross-linked samples were separated on a 16% SDS-PAGE gel and visualized by Coomassie blue staining.

α-syn [4] = target: T3, α-syn; assay: Transmission electron microscopy (TEM) of α-syn fibrils; assay type: biochemical; conditions: protein 60 μM, compound 600 μM (1:10), 24 hours at 37° C.
Procedure: To confirm the general anti-fibrillar effect of compound 10, transmission electron microscopy (TEM) was used as an orthogonal assay. After incubating recombinant proteins (at 60 μM) with 600 μM compound 10 for 24 hours at 37° C., TEM was utilized to detect fibril formation.^32 A volume of 10 μL was applied on a 400-mesh Formvar-carbon-coated copper grid (Electron Microscopy Sciences, Hatfield, PA). The grids were incubated for 1 minute and washed three times with distilled water. They were carefully air-dried and incubated for 1 minute in a fresh solution of 1% uranyl acetate. Samples were air-dried and observed using a transmission microscope. Visualization of the grids was performed with transmission electron microscopy (JEOL 1400 Flash, Japan). Acquisition of pictures was performed with the following settings: accelerating voltage of 100 kV and magnification of 40k.

tau isoform 2N4R [5] = target: T1, tau isoform 2N4R; assay: TEM of tau isoform 2N4R fibrils; assay type: biochemical; conditions: protein 60 μM, compound 600 μM (1:10), 24 hours at 37° C.
Procedure: as §1
To confirm the general anti-fibrillar effect of compound 10, transmission electron microscopy (TEM) was used as an orthogonal assay. After incubating recombinant proteins (at 60 μM) with 600 μM compound 10 for 24 hours at 37° C., TEM was utilized to detect fibril formation.^32 A volume of 10 μL was applied on a 400-mesh Formvar-carbon-coated copper grid (Electron Microscopy Sciences, Hatfield, PA). The grids were incubated for 1 minute and washed three times with distilled water. […]

[6] = test system: M17D-TR/αS3K::YFP neuroblastoma cells; assay: α-syn inclusion formation in dox-inducible neuroblastoma cells; assay type: cell-based
Procedure: The dox-inducible neuroblastoma cell line M17D-TR/αS3K::YFP was used to evaluate the effect of compounds in preventing the formation of inclusion following induction with Dox. Dox-inducible neuroblastoma cells M17D-TR/αS-3K::YFP have been used previously. 96-well plates were used with cellular density of 30,000 cells per well. Compounds were added after 24 h and aS-3K::YFP transgene expression was induced […]. Induction was done by adding 1 μg per mL (final concentration) dox to culture media. Cells were incubated in the Incucyte Zoom 2000 platform (Essen Biosciences) and images (green, bright field) were taken continuously. Endpoint analysis of inclusion formation or growth was performed 48 h after induction (96 h after plating). The Incucyte processing definition ‘Inclusions’ was created as follows: Parameters, Fixed Threshold, Threshold (GCU) 50; Edge Split On, Edge Sensitivity 100; Cleanup, Hole Fill (μm^2): 10, Adjust Size (pixels): 0; Filters, Area (μm^2): max 50, Mean Intensity: min 60, Integrated Intensity: min 2000. […] As described previously for the evaluation of protein expression by SDS-PAGE and Western Blotting in the LiCor system, αS-specific monoclonal antibody 4B12 (Thermofisher, Waltham, MA; 1:1000) and a polyclonal antibody to GAPDH (Sigma-Aldrich, St. Louis, MO, G9545; 1:5000) were used.

tau isoform 2N4R fibrillization (in words) (tau isoform 2N4R [2])	ThT fluorescence intensity (FI), maximum at the plateau phase of α-syn fibrillization (alpha-synuclein (α-syn); α-syn 6.25 μM (molar ratio 1:16), compared with DMSO control, mean±SEM, 100 µM) [%]	activity at 100 µM (alpha-synuclein (α-syn); α-syn 6.25 μM (molar ratio 1:16), compared with DMSO control, mean±SEM, read-out: ThT fluorescence intensity (FI), maximum at the plateau phase of α-syn fibrillization) [%]	SMILES	tau oligomer formation (PICUP, in words) (tau isoform 2N4R [1])	inhibition of α-syn aggregation / fibril formation (in words) (alpha-synuclein (α-syn); ThT assay)	α-syn oligomer formation (PICUP, in words) (α-syn [3])	α-syn fibril ultrastructure (TEM) (α-syn [4])	tau isoform 2N4R fibril ultrastructure (TEM) (tau isoform 2N4R [5])	α-syn expression levels (Western blot) ([6]; compound 10 μM)	α-syn expression levels (Western blot) ([6]; compound 2.5 and 20 μM)	α-syn inclusion formation (punctate YFP signal, in words) ([6]; compound 7: 2.5 to 20 μM, compound 10: 2.5 to 40 μM, readout 96 h after plating, vs 0.1% DMSO)
failed to reduce tau fibril formation	–	–	c1cc(Oc2ncnc(Oc3cccc4[nH]ccc34)n2)c2cc[nH]c2c1 [Compound 7, 4-{[4-(1H-indol-4-yloxy)-1,3,5-triazin-2-yl]oxy}-1H-indole]	did not reduce the formation of α-syn and tau oligomers	nonexistent anti-fibrillar activity; also recorded: weak effect on fibril formation	did not reduce the formation of α-syn and tau oligomers	packets of fine fibrils with a few spherical structures encountered on the grid	fibrils surrounded by debris admixed with disrupted fibrils	reduced	reduced	very minimal changes in the numbers of inclusion
–	−0.3±0.5	–	Clc1nc(Nc2ccc3cc[nH]c3c2)nc(Nc2ccc3cc[nH]c3c2)n1 [Compound 24]	–	–	–	–	–	–	–	–
–	–	21.5 ± 7.9	c1cc(Nc2nc(Nc3cccc4[nH]ccc34)nc(Nc3cccc4[nH]ccc34)n2)c2cc[nH]c2c1 [Compound 25]	–	–	–	rare short fibrils	medium size needle-shaped fibrils	–	–	–
